Test results: patent publication US10222368B2 (priority 2012, dated 2019)

Target: T1, mu opiate receptor (MOR) (Rattus norvegicus, UniProt P33535)
T1 construct: from tissue; host or cells: striatal tissue (membrane preparation)
Test: MOR agonist activity using [35S]GTPγS binding assay in striatal membranes
Type: biochemical
Conditions: for MOR agonist activity, [35S]GTPγS binding, FLNA-binding compound as agonist at 0.1 μM / MOR agonist activity, [35S]GTPγS binding, FLNA-binding compound as agonist at 1 μM: Series C-2; for MOR agonist activity, [35S]GTPγS binding, 1 μM + BFNA: 1 μM compound + 1 μM β-FNA (MOR antagonist); for MOR agonist activity ([35S]GTPγS binding to Gαo), preliminary study: average of two runs
Protocol: To assess the mu opiate receptor (MOR) agonist activity of positive compounds from the FLNA screening, compounds were tested in a [^35S]GTPγS binding assay using striatal membranes. […] This assay measures a functional consequence of receptor occupancy at one of the earliest receptor-mediated events. The assay permits for traditional pharmacological parameters of potency, efficacy and antagonist affinity, with the advantage that agonist measures are not subjected to amplification or other modulation that may occur when analyzing parameters further downstream of the receptor.
Thus, striatal tissue was homogenized in 10 volumes of ice cold 25 mM HEPES buffer, pH 7.4, which contained 1 mM EGTA, 100 mM sucrose, 50 μg/ml leupeptin, 0.04 mM PMSF, 2 μg/ml soybean trypsin inhibitor and 0.2% 2-mercaptoethanol. The homogenates were centrifuged at 800×g for 5 minutes and the supernatants were centrifuged at 49,000×g for 20 minutes.
The resultant striatal membrane preparation (200 μg) was admixed and maintained (incubated) at 30° C. for 5 minutes in reaction buffer as above that additionally contained 1 mM MgCl2 and 0.5 nM [^35S]GTPγS (0.1 μCi/assay, PerkinElmer Life and Analytical Sciences) in a total volume of 250 μl and continued for 5 minutes in the absence or presence of 0.1-10 μM of an assayed compound of interest. The reaction was terminated by dilution with 750 μl of ice-cold reaction buffer that contained 20 mM MgCl2 and 1 mM EGTA and immediate centrifugation at 16,000×g for 5 minutes.
Normal rabbit serum (1 μl) was added to 1 ml of lysate and incubated at 25° C. for 30 minutes. Nonspecific immune complexes were removed by incubation with 25 μl of protein A/G-conjugated agarose beads at 25° C. for 30 minutes followed by centrifugation at 5,000×g at 4° C. for 5 minutes. The supernatant was divided and separately incubated at 25° C. for 30 minutes with antibodies raised against Gαo proteins (1:1,000 dilutions).
The immunocomplexes so formed were collected by incubation at 25° C. for 30 minutes with 40 μl of agarose-conjugated protein A/G beads and centrifugation at 5,000×g at 4° C. for 5 minutes. The pellet was washed and suspended in buffer containing 50 mM Tris-HCl, pH 8.0, and 1% NP-40. The radioactivity in the suspension was determined by liquid scintillation spectrometry.

[1] = 0.1 μM compound, striatal membranes
[2] = 1 μM compound, relative to DAMGO
[3] = 1 μM compound, striatal membranes
[4] = Series C-1, 1 μM compound + BFNA relative to DAMGO + BFNA
[5] = 0.1 μM compound, relative to DAMGO

T1 sequence (P33535 whole entry): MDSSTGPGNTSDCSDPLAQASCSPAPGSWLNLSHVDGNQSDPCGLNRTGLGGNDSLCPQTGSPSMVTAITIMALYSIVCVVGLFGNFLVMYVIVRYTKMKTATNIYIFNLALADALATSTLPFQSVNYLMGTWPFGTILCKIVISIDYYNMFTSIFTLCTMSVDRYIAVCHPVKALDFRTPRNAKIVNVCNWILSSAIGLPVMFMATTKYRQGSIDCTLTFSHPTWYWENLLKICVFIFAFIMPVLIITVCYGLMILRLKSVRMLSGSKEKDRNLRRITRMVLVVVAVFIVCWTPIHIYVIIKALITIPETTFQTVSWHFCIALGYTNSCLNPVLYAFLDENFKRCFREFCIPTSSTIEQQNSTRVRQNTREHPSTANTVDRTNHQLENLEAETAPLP

Compound | MOR agonist activity, [35S]GTPγS binding, FLNA-binding compound as agonist at 0.1 μM [1] [%] | MOR agonist activity, [35S]GTPγS binding, 1 μM + BFNA (striatal membranes) [%] | MOR agonist activity, [35S]GTPγS binding, FLNA-binding compound as agonist at 1 μM [3] [%] | other results
C=CCN1CCC2(CC1)OCCN2S(=O)(=O)c1ccc(C(C)=O)cc1 [Compound C0096M] | 186.4 | 127.1 | 328.9 | % DAMGO (1 μM) [2]: 130.0%
CS(=O)(=O)c1ccc(S(=O)(=O)N2CCOC23CCNCC3)cc1 [Compound C0116M] | 258.4 | 152.0 | 302.8 | 
CC(C)c1ccc(S(=O)(=O)N2CCC3(CC2)OCCN3S(=O)(=O)c2ccc(C(C)C)cc2)cc1 [Compound C0007] |  |  |  | % DAMGO (0.1 μM) (Series C-1, 0.1 μM compound relative to DAMGO (0.1 μM)): 46.0%; % DAMGO + BFNA [4]: 17.0%
CC(=O)c1ccc(S(=O)(=O)N2CCOC23CCN(C)CC3)cc1 [Compound C0093M] | 140.0 | 44.0 | 211.8 | 
O=C1CN(Cc2ccccc2)C2(CCN(CC3CC3)CC2)N1 [Compound C0125M] | 168.6 | 159.7 | 195.2 | 
COc1cccc(CC(=O)CC2c3c(cc4c(c3OC)OCO4)CC[N+]2(C)C)c1OC.[I-] (stereo not shown) [Compound B0038] |  |  |  | MOR agonist activity, [35S]GTPγS binding, at 1 μM compound (Series B, 1 μM compound, [35S]GTPγS binding to Gαo, striatal membranes): 205.3%
CCCCN1CCC2(CC1)OCCN2S(=O)(=O)c1ccc(C(C)=O)cc1 [Compound C0101M] | 138.2 | 174.8 | 274.3 | 
COc1ccc(NC(=O)N2CCC3(CC2)NCCO3)cc1 [Compound C0151M-2] | 346.8 | 212.8 | 397.6 | 
O=[N+]([O-])c1ccc(S(=O)(=O)N2CCC3(CC2)NCCS3)cc1 [Compound C0044] | 173.7 | 59.1 | 280.1 | 
N#Cc1ccc(S(=O)(=O)N2CCC3(CC2)OCCN3S(=O)(=O)c2ccc(C#N)cc2)cc1 [Compound C0008] |  |  |  | % DAMGO + BFNA [4]: 4.4%
C[C@@H](NC(=O)[C@@H](N)Cc1ccc(O)cc1)C(=O)NCC(=O)N(C)[C@@H](Cc1ccccc1)C(=O)NCCO [DAMGO, [D-Ala2, N-MePhe4, Gly-ol]-enkephalin, reference compound] | 168.5 | 53.2 | 266.1 | MOR agonist activity ([35S]GTPγS binding to Gαo), preliminary study (0.1 μM compound as agonist): 144.7%; MOR agonist activity ([35S]GTPγS binding to Gαo), preliminary study (1 μM + βNFA): 56.8%; MOR agonist activity ([35S]GTPγS binding to Gαo), preliminary study (1 μM compound as agonist): 233.4%
CC(=O)c1ccc(S(=O)(=O)N2CCC3(CC2)OCCN3S(C)(=O)=O)cc1 [Compound C0056] | 98.6 | 86.3 | 193.4 | % DAMGO (0.1 μM) [5]: 68.0%; % DAMGO (1 μM) [2]: 83.0%
COc1ccc(S(=O)(=O)N2CCOC23CCNCC3)cc1 [Compound C0027] | 233.2 | 72.2 | 313.9 | 
Cc1ccc(S(=O)(=O)N2CCOC23CCN(CC2CC2)CC3)cc1 [Compound C0134M] | 158.5 | 46.6 | 207.3 | MOR agonist activity ([35S]GTPγS binding to Gαo), preliminary study (0.1 μM compound as agonist): 150.7%; % DAMGO (0.1 μM) [5]: 94.6%; MOR agonist activity ([35S]GTPγS binding to Gαo), preliminary study (1 μM + βNFA): 53.2%; % DAMGO + BFNA (1 μM compound + BFNA, relative to DAMGO + BFNA): 98.1%; MOR agonist activity ([35S]GTPγS binding to Gαo), preliminary study (1 μM compound as agonist): 224.0%; % DAMGO (1 μM) [2]: 93.3%
O=C1CN(Cc2ccccc2)C2(CCNCC2)N1 [Compound C0115M] | 177.2 | 118.4 | 226.8 | 
